# Data published in ChEMBL document CHEMBL1152560, “Substituted 2-arylbenzothiazoles as kinase inhibitors: hit-to-lead optimization” (Bioorg Med Chem, 2009).
# Legend:
# [1] = biological target: T1, Beta-adrenergic receptor kinase 1 (Homo sapiens) (UniProt P25098); assay: Residual activity of GRK2 at 1 uM by microplate scintillation counting
# T1 sequence (whole entry): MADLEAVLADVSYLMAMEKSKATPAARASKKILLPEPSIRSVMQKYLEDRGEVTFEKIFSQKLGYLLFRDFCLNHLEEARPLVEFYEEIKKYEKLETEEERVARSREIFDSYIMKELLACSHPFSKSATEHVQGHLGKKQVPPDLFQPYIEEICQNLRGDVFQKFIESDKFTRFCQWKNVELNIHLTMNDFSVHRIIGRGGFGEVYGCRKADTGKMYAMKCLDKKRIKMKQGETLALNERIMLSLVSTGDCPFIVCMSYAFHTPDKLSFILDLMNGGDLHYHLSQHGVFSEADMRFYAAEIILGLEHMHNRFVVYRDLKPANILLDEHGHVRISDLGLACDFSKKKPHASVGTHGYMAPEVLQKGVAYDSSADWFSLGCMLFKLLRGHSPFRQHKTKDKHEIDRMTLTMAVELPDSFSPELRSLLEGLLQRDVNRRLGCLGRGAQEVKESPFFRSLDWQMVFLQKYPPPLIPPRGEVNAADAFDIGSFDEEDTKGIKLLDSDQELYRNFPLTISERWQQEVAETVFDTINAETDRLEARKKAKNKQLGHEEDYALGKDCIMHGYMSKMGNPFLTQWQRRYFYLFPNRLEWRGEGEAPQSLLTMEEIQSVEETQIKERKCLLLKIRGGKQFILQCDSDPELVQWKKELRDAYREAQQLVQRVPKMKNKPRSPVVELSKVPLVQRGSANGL
# [2] = test system: Fibroblast growth factor receptor 1 (Homo sapiens), P11362 [V561M]; assay: Residual activity of FGFR1 V561M mutant at 0.1 uM by microplate scintillation counting
# Sequence of Fibroblast growth factor receptor 1 (Homo sapiens), P11362 [V561M] (P11362 whole entry V561M): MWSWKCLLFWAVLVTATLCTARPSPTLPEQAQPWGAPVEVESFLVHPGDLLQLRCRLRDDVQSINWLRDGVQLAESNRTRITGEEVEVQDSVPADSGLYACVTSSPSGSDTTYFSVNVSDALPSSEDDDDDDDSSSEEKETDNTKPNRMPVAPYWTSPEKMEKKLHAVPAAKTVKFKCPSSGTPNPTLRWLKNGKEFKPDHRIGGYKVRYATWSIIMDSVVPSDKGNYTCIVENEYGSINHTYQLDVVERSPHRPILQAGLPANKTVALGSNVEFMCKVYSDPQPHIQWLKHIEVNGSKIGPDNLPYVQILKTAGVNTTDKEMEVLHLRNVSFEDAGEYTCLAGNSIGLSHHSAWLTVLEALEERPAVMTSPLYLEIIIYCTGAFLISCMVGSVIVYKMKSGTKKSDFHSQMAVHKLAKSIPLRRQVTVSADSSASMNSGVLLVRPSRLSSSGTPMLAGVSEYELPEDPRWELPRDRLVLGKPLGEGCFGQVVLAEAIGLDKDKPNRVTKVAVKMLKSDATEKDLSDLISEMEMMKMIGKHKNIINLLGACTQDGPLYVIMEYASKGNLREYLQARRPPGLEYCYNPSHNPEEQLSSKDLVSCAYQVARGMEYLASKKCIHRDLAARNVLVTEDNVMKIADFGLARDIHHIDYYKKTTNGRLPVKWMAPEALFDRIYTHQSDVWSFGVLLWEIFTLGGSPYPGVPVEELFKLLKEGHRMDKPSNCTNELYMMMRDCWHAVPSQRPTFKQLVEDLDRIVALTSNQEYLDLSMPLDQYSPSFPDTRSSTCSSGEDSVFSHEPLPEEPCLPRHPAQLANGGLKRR
# [3] = biological target: Insulin receptor-related protein (Homo sapiens) (UniProt P14616); assay: Residual activity of INSRR at 0.1 uM by microplate scintillation counting
# Sequence of Insulin receptor-related protein (Homo sapiens) (P14616 27-742 limits assumed): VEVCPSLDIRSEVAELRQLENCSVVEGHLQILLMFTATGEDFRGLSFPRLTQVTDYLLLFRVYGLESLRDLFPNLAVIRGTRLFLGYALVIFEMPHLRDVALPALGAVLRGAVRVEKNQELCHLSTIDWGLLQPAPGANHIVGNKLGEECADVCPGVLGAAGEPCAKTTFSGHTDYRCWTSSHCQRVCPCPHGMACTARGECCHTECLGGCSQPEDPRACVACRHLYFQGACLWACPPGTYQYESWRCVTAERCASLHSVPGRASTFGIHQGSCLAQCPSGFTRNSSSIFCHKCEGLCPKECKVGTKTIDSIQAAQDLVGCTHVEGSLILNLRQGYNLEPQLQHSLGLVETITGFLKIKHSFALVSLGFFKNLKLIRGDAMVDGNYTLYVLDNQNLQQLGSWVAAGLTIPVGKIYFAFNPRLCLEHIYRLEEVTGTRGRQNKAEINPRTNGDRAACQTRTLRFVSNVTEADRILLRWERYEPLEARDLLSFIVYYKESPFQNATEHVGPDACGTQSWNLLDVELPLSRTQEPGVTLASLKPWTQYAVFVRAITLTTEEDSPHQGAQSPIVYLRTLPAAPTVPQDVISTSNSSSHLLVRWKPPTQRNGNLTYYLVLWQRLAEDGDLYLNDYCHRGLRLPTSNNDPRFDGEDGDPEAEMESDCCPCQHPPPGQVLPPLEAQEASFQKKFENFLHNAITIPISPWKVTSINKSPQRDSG
# Sequence of Insulin receptor-related protein (Homo sapiens) (P14616 747-1297 limits assumed): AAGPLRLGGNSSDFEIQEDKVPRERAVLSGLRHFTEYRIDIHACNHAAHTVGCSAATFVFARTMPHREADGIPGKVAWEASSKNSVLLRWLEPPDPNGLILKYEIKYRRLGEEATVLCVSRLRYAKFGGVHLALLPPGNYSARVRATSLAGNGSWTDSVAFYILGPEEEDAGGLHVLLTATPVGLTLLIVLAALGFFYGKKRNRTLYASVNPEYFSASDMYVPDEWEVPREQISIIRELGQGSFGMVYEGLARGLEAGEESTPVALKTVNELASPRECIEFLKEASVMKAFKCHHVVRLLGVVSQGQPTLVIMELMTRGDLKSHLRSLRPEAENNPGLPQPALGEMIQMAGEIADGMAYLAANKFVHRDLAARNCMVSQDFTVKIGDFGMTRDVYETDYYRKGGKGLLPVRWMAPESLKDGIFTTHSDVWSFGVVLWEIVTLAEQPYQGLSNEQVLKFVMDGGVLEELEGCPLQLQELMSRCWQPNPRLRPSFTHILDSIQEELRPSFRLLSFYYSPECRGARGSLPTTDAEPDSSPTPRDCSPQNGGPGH
# [4] = biological target: T2, Serine/threonine-protein kinase Sgk3 (Homo sapiens) (UniProt Q96BR1); assay: Residual activity of SGK3 at 10 uM by microplate scintillation counting
# T2 sequence (whole entry): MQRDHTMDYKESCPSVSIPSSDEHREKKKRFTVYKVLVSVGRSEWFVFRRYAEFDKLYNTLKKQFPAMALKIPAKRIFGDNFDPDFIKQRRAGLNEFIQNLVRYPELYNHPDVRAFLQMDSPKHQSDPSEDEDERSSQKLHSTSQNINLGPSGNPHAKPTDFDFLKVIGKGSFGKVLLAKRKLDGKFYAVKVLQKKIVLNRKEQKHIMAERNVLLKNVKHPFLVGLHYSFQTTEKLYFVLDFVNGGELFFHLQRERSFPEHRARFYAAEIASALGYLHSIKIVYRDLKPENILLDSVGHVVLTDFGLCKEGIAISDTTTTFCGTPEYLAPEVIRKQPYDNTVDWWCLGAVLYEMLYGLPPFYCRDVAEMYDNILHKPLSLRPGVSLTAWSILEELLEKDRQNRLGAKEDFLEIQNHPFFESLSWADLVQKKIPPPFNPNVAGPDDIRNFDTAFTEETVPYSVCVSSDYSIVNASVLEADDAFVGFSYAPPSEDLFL
# [5] = biological target: T3, Serine/threonine-protein kinase TAO2 (Homo sapiens) (UniProt Q9UL54); assay: Residual activity of TAOK2 at 0.1 uM by microplate scintillation counting
# T3 sequence (whole entry): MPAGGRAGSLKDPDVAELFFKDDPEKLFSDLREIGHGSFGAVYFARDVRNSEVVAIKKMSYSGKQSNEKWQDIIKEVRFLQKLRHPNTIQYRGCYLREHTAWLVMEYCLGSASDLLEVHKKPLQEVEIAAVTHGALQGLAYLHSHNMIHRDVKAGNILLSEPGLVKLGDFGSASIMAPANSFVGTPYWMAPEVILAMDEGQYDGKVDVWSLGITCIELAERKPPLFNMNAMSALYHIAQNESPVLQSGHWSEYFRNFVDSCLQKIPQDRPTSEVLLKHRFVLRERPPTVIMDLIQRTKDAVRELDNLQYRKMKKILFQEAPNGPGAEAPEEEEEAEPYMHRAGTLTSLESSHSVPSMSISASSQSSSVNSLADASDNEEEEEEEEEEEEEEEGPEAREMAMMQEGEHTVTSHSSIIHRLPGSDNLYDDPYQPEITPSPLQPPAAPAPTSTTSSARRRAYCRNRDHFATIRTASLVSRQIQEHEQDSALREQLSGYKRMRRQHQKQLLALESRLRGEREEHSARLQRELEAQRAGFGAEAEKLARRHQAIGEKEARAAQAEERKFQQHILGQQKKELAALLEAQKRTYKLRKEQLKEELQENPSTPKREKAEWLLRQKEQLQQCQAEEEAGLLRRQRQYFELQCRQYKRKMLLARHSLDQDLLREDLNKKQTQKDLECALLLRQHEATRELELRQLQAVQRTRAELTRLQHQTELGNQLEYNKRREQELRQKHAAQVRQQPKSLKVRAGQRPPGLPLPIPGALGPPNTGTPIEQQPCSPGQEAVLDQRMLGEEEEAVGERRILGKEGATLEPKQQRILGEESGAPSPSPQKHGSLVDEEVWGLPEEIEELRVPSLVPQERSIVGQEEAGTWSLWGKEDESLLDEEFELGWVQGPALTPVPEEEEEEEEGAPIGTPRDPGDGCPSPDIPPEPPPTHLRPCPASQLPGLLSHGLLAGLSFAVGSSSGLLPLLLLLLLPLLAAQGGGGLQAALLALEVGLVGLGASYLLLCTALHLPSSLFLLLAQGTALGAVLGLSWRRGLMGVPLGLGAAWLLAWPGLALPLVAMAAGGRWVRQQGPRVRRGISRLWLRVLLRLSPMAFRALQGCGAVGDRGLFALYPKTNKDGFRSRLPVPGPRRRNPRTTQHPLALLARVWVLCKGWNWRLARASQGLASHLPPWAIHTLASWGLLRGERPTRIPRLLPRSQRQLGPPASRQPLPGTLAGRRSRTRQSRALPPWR
# [6] = biological target: T4, Testis-specific serine/threonine-protein kinase 2 (Homo sapiens) (UniProt Q96PF2); assay: Residual activity of TSK2 at 0.1 uM by microplate scintillation counting
# T4 sequence (whole entry): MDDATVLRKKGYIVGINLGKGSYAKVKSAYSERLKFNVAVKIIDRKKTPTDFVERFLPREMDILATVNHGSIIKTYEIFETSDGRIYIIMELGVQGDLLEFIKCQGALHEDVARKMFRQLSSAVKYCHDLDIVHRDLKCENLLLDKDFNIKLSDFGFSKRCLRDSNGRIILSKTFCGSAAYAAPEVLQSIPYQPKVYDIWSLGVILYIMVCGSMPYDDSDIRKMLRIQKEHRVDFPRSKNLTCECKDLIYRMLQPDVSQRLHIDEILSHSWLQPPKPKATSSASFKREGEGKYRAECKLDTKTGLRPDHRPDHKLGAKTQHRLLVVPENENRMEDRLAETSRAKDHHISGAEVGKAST
residual activity [1] [%],residual activity [2] [%],residual activity [3] [%],residual activity [4] [%],residual activity [5] [%],residual activity [6] [%],SMILES
97,108,97,98,102,101,COc1cc2c(Oc3ccc(-c4nc5ccccc5s4)cc3)ncnc2cc1OCCCN1CCCC1
105,109,96,112,92,97,COc1cc2c(Oc3ccc(-c4nc5ccccc5s4)cc3)ncnc2cc1OCCCN1CCN(C)CC1
85,93,116,97,108,96,COc1cc2c(Oc3ccc(-c4nc5ccccc5s4)cc3F)ncnc2cc1OCCCN1CCN(C)CC1
